The source of these data is patent publication US12454529B2, “Piperazine cyclic ureas” (SIRONAX LTD., priority 2020, dated 2025).

SMILES strings stand for the structures.

By EC50 is commonly meant the concentration that produces a half-maximal response.

The first assay concerns HT-29 cells. Description: HT-29 cell necrosis/necroptosis inhibition (TNF-α + SMAC mimetic + zVAD-FMK; CellTiter-Glo cell viability). It is filed as cell-based. The following applies: Homo sapiens; HT-29 cells, TNF-α 10 ng/ml + SMAC mimetic 6 μM + zVAD-FMK 10 μM, 20 hours; geometric mean, 10 points in duplicate; read-out: EC50 (Cell activity; Necrosis/Necroptosis Inhibitory Activity, Compounds 1-142). Put shortly:
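Necroptosis was driven by TNF-α 10 ng/ml plus SMAC mimetic 6 μM and zVAD-FMK 10 μM in serum-free medium, with compounds as a 10-point threefold titration. After 20 h at 37 °C, ATP-based luminescence was read; EC50 values are geometric means of duplicate curves.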
On to `Cc1nn(CC2COC2)c(C)c1-c1nc(N2CCN(C(=O)N3N=CC[C@H]3c3cc(F)cc(C#N)c3)CC2)ncc1F` [Compound 135, (S)-3-(1-(4-(4-(3,5-dimethyl-1-(oxetan-3-ylmethyl)-1H-pyrazol-4-yl)-5-fluoropyrimidin-2-yl)piperazine-1-carbonyl)-4,5-dihydro-1H-pyrazol-5-yl) fluorobenzonitrile], for which the EC50 lay in the range of 0.1 to 100 nM.

On to `Cn1nccc1-c1nc(N2CCN(C(=O)N3N=CC[C@H]3c3cc(F)cc(C#N)c3)CC2)ncc1F` [Compound 69, (S)-3-fluoro-5-(1-(4-(5-fluoro-4-(1-methyl-1H-pyrazol-5-yl)pyrimidin-2-yl)piperazine-1-carbonyl)-4,5-dihydro-1H-pyrazol-5-yl)benzonitrile], for which the EC50 was 0.1 to 100 nM.

As to `O=C(N1CCN(c2ncc(F)c(-c3cn[nH]c3)n2)CC1)N1N=CC[C@H]1c1cc(F)cc(F)c1` [Compound 52, (S)-(5-(3,5-difluorophenyl)-4,5-dihydro-1H-pyrazol-1-yl)(4-(5-fluoro-4-(1H-pyrazol-4-yl)pyrimidin-2-yl)piperazin-1-yl)methanone], the EC50 lay within 0.1 to 100 nM.

As to `Cc1cnn(C)c1-c1nc(N2CCN(C(=O)N3N=CC[C@H]3c3cc(F)cc(C#N)c3)CC2)ncc1F` [Compound 62, (S)-3-(1-(4-(4-(1,4-dimethyl-1H-pyrazol-5-yl)-5-fluoropyrimidin-2-yl)piperazine-1-carbonyl)-4,5-dihydro-1H-pyrazol-5-yl)-5-fluorobenzonitrile], the EC50 lay in the range of 0.1 to 100 nM.

Turning to `Cc1[nH]nc(CO)c1-c1nc(N2CCN(C(=O)N3N=CC[C@H]3c3cc(F)cc(C#N)c3)CC2)ncc1F` [Compound 74, (S)-3-fluoro-5-(1-(4-(5-fluoro-4-(3-(hydroxymethyl)-5-methyl-1H-pyrazol-4-yl)pyrimidin-2-yl)piperazine-1-carbonyl)-4,5-dihydro-1H-pyrazol-5-yl)benzonitrile], the EC50 was 0.1 to 100 nM.

Turning to `Cc1n[nH]cc1-c1nc(N2CCN(C(=O)N3N=CC[C@H]3c3cc(F)cc(F)c3)CC2)ncc1F` [Compound 13, (S)-(5-(3,5-difluorophenyl)-4,5-dihydro-1H-pyrazol-1-yl)(4-(5-fluoro-4-(3-methyl-1H-pyrazol-4-yl)pyrimidin-2-yl)piperazin-1-yl)methanone], the EC50 lay within 0.1 to 100 nM.

Take `Cc1nnnn1-c1nc(N2CCN(C(=O)N3N=CC[C@H]3c3cc(F)cc(C#N)c3)CC2)ncc1F` [Compound 59, (S)-3-fluoro-5-(1-(4-(5-fluoro-4-(5-methyl-1H-tetrazol-1-yl)pyrimidin-2-yl)piperazine-1-carbonyl)-4,5-dihydro-1H-pyrazol-5-yl)benzonitrile]: the half-maximal effective concentration (EC50) fell in the range of 0.1 to 100 nM.

On to `Cc1nnn(C)c1-c1nc(N2CCN(C(=O)N3N=CC[C@H]3c3cc(F)cc(C#N)c3)CC2)ncc1F` [Compound 70, (S)-3-(1-(4-(4-(1,4-dimethyl-1H-1,2,3-triazol-5-yl)-5-fluoropyrimidin-2-yl)piperazine-1-carbonyl)-4,5-dihydro-1H-pyrazol-5-yl)-5-fluorobenzonitrile], for which the EC50 fell in the range of 0.1 to 100 nM.

In the case of `NC(=O)c1cnn(-c2ccnc(N3CCN(C(=O)N4N=CC[C@H]4c4ccccc4)CC3)n2)c1` [Compound 11, (S)-1-(2-(4-(5-phenyl-4,5-dihydro-1H-pyrazole-1-carbonyl)piperazin-1-yl)pyrimidin-4-yl)-1H-pyrazole-4-carboxamide], the EC50 is 0.1 to 100 nM.

In the case of `O=C(N1CCN(c2nccc(-c3cc[nH]n3)n2)CC1)N1N=CC[C@H]1c1ccccc1` [Compound 39, (S)-(4-(4-(1H-pyrazol-3-yl)pyrimidin-2-yl)piperazin-1-yl)(5-phenyl-4,5-dihydro-1H-pyrazol-1-yl)methanone], the EC50 lay within 0.1 to 100 nM.

The assay is the same for the next values; noted with them: Homo sapiens; HT-29 cells, TNF-α 10 ng/ml + SMAC mimetic 6 μM + zVAD-FMK 10 μM, 20 hours; geometric mean, 10 points in duplicate; read-out: EC50 (Cell activity; Necrosis/Necroptosis Inhibitory Activity, Compounds 143-323).
For the compound `CC(=O)Nc1c(C)nn(-c2nc(N3CCN(C(=O)N4N=CC[C@H]4c4cc(F)cc(F)c4)CC3)ncc2F)c1C` [Compound 193, (S)—N-(1-(2-(4-(5-(3,5-difluorophenyl)-4,5-dihydro-1H-pyrazole-1-carbonyl)piperazin-1-yl)-5-fluoropyrimidin-4-yl)-3,5-dimethyl-1H-pyrazol-4-yl)acetamide], the EC50 lay within 0.1 to 100 nM.

As for `Cc1cnc([C@@H]2CC=NN2C(=O)N2CCN(c3ncc(F)c(-n4nc(C#N)nc4C)n3)CC2)s1` [Compound 319, (S)-1-(5-fluoro-2-(4-(5-(5-methylthiazol-2-yl)-4,5-dihydro-1H-pyrazole-1-carbonyl)piperazin-1-yl)pyrimidin-4-yl)-5-methyl-1H-1,2,4-triazole-3-carbonitrile], the EC50 was in the range of 0.1 to 100 nM.

For `Cc1nc(C)n(-c2ncc(F)c(N3CCN(C(=O)N4N=CCC4c4ncccc4Cl)CC3)n2)n1` (stereo not shown) [Compound 263, (5-(3-chloropyridin-2-yl)-4,5-dihydro-1H-pyrazol-1-yl)(4-(2-(3,5-dimethyl-1H-1,2,4-triazol-1-yl)-5-fluoropyrimidin-4-yl)piperazin-1-yl)methanone], the EC50 is 100 to 1000 nM.

For the compound `Cc1nc(C)n(-c2nc(N3CCN(C(=O)N4N=CCC4c4csc(C)n4)CC3)ncc2F)n1` (stereo not shown) [Compound 213, (4-(4-(3,5-dimethyl-1H-1,2,4-triazol-1-yl)-5-fluoropyrimidin-2-yl)piperazin-1-yl)(5-(2-methylthiazol-4-yl)-4,5-dihydro-1H-pyrazol-1-yl)methanone], the EC50 was 100 to 1000 nM.

In the case of `Cc1nn(-c2ccnc(N3CCN(C(=O)N4N=CC[C@H]4c4cc(F)cc(C#N)c4)CC3)n2)c(C)c1C(N)=O` [Compound 276, (S)-1-(2-(4-(5-(3-cyano-5-fluorophenyl)-4,5-dihydro-1H-pyrazole-1-carbonyl)piperazin-1-yl)pyrimidin-4-yl)-3,5-dimethyl-1H-pyrazole-4-carboxamide], the half-maximal effective concentration (EC50) was 0.1 to 100 nM.

On to `Cc1nnc(-c2nc(N3CCN(C(=O)N4N=CC[C@H]4c4cc(F)cc(C#N)c4)CC3)ncc2F)n1C` [Compound 179, (S)-3-(1-(4-(4-(4,5-dimethyl-4H-1,2,4-triazol-3-yl)-5-fluoropyrimidin-2-yl)piperazine-1-carbonyl)-4,5-dihydro-1H-pyrazol-5-yl)-5-fluorobenzonitrile], for which the EC50 was in the range of 0.1 to 100 nM.

Regarding `Cc1nn(-c2nc(N3CCN(C(=O)N4N=CC[C@H]4c4cc(F)cc(C#N)c4)CC3)ncc2F)c(C)c1C(N)=O` [Compound 277, (S)-1-(2-(4-(5-(3-cyano-5-fluorophenyl)-4,5-dihydro-1H-pyrazole-1-carbonyl)piperazin-1-yl)-5-fluoropyrimidin-4-yl)-3,5-dimethyl-1H-pyrazole carboxamide], the EC50 lay within 0.1 to 100 nM.

In the case of `Cc1nc(C)n(-c2nc(N3CCN(C(=O)N4N=CCC4c4cnc(C)s4)CC3)ncc2Cl)n1` (stereo not shown) [Compound 223, (4-(5-chloro-4-(3,5-dimethyl-1H-1,2,4-triazol-1-yl)pyrimidin-2-yl)piperazin-1-yl)(5-(2-methylthiazol-5-yl)-4,5-dihydro-1H-pyrazol-1-yl)methanone], the EC50 was in the range of 0.1 to 100 nM.

Regarding `Cn1nc(C(N)=O)nc1-c1nc(N2CCN(C(=O)N3N=CCC3c3cc(F)cc(F)c3)CC2)ncc1F` (stereo not shown) [Compound 225, 5-(2-(4-(5-(3,5-difluorophenyl)-4,5-dihydro-1H-pyrazole-1-carbonyl)piperazin-1-yl)-5-fluoropyrimidin-4-yl)-1-methyl-1H-1,2,4-triazole-3-carboxamide], the concentration for a half-maximal effect (EC50) fell in the range of 0.1 to 100 nM.
